{
  "source": "patent US12144815B2",
  "about": "“Use of aprepitant for treating Alzheimer's disease” (Hoth Therapeutics, Inc., priority 2021, dated 2024)",
  "key": {"APP/PS1 mice": {"tested_on": "APP/PS1 mice", "experiment": "Morris Water Maze test of spatial learning and memory", "type": "in vivo", "conditions": "3 weeks oral treatment", "method": "A Morris Water Maze test was used to evaluate spatial learning and memory after 3 weeks treatment with oral aprepitant or vehicle in APP/PS1 or wild type (WT) mice.\nAnimal Model. All experiment protocols using animals were performed ethically and in accordance with the guidelines established by the Institutional Animal Care and Use Committee at Washington University. APPswe/PS1DE9 hemizygous mice (Jackson Laboratory, RRID: MMRRC_034829.JAX) (Savonenko et al., 2003) were bred to wild type C3H/B6 mice and aged the APP/PS1^+/− offspring to 2-3.5 months for microdialysis experiments or aged to 9 months for behavioral testing. Males and females were included in each group; aprepitant treated mice n=20 (11 males, 9 females), Vehicle treated mice […] for microdialysis experiments. […]\nMorris water maze (MWM) test. […] The PVC escape platform measured 11.5 cm in diameter. A digital video camera connected to a PC computer and the computer software program ANY-maze (Stoelting Co., Wood Dale, IL) tracked the swimming pathway of the mouse to the escape platform and quantified path length, latency to find escape platform, and swimming speeds. […]"}, "[1]": {"tested_on": "brain interstitial fluid (ISF) Aβ", "experiment": "In vivo microdialysis of brain interstitial fluid (ISF) Aβ with Aβ sandwich ELISA", "conditions": "APP/PS1+/− mice, 40 mg/kg oral gavage", "method": "In vivo microdialysis was utilized to measure the basal concentration of ISF Aβ in each mouse, followed by administration via oral gavage of 40 mg/kg dose of aprepitant or vehicle (corn oil) and continued measurement of Aβ over 24 hours.\nThree-four month old APP/PS1^+/− mice were implanted with unilateral guide cannula above the hippocampus followed by insertion of microdialysis probes (see, for example, In Vivo AβMicrodialysis of Example 7). Each animal recovered for 3 days between guide cannula implantation and start of microdialysis. Littermate females and males were separated randomly into each treatment group. Throughout each microdialysis study, mice were housed in special RaTurn caging systems to provide freedom of movement and ad lib food and water while the microdialysis equipment was attached. […]\nFollowing drug administration, ISF was measured every 60 minutes for 24 hours. […] ISF APβ was immediately measured at the end of each study by Aβ sandwich ELISA. […]\nIn Vivo Aβ Microdialysis. […] Samples were collected every 60 or 90 minutes into a refrigerated fraction collector (Univentor Limited) in polypropylene tubes and assessed for […] by sandwich ELISA. […]\nAβ Sandwich ELISA. ISF Aβx-40 levels were measured using sandwich ELISAs as described (Hettinger et al., 2018). […]"}},
  "data": [
    {"compound": "C[C@H](O[C@@H]1OCCN(Cc2n[nH]c(=O)[nH]2)[C@H]1c1ccc(F)cc1)c1cc(C(F)(F)F)cc(C(F)(F)F)c1", "note": "[aprepitant]", "values": [
      {"measurement": "spatial memory for the platform location (time spent in the target quadrant, probe trial)", "setting": "APP/PS1 mice; compared to vehicle-treated APP/PS1 mice, preliminary data", "value": "trend for improved memory"},
      {"measurement": "spatial learning (path length, learning trials)", "setting": "APP/PS1 mice; n=4 vs vehicle n=3, preliminary data, trend", "value": "improved spatial learning"},
      {"measurement": "average ISF Aβ levels post gavage compared to vehicle treated mice", "setting": "[1]; Bonferroni post hoc, p=0.0002", "value": "significantly lower"},
      {"measurement": "ISF Aβ levels, change from baseline (within group)", "setting": "[1]; hippocampal ISF measured over 24 hours, p <0.0001, vehicle (corn oil) mice did not decrease (p=0.4003)", "value": "significantly decreased from their baseline"}
    ]}
  ]
}
